{
  "source": "paper PMC8583718",
  "about": "“Transient Fluorescence Labeling: Low Affinity—High Benefits” (International Journal of Molecular Sciences, 2021)",
  "origin": "cited, not measured here",
  "key": {"DNA": {"biological_target": "DNA", "set-up": "method as in PMID 26423723", "details": "staining of DNA"}, "Y-FAST": {"tested_on": "Y-FAST", "set-up": "method as in PMID 26711992"}, "actin structures": {"tested_on": "actin structures", "set-up": "method as in PMID 26317264", "details": "compared among actin tags"}, "UnaG": {"biological_target": "UnaG", "set-up": "method as in PMID 23768684", "details": "bilirubin–UnaG"}, "mFAP1": {"biological_target": "mFAP1", "set-up": "method as in PMID 30209393", "details": "mFAP1 with DFHBI; read-out: dissociation constant"}, "mFAP2": {"biological_target": "mFAP2", "set-up": "method as in PMID 30209393", "details": "mFAP2 with DFHBI; read-out: dissociation constant"}, "[1]": {"biological_target": "dimeric transcription factors LmrR and RamR", "set-up": "method as in PMID 33913682", "details": "modified LmrR and RamR"}, "G-actin": {"tested_on": "G-actin", "set-up": "method as in PMID 18536722", "details": "G-actin compared with F-actin"}, "F-actin [2]": {"biological_target": "F-actin", "set-up": "method as in PMID 18536722"}, "microtubules [3]": {"biological_target": "microtubules", "set-up": "method as in PMID 29662074", "details": "interaction with microtubules"}, "microtubules [4]": {"biological_target": "microtubules", "set-up": "method as in PMID 12773533", "details": "interaction with microtubules"}, "F-actin [5]": {"biological_target": "F-actin", "set-up": "method as in PMID 15826935", "details": "binding to F-actin"}, "[6]": {"biological_target": "protein–fluorogen complexes", "details": "UnaG system"}},
  "note": "Where “and” joins values, the source holds several entries; their conditions need not be identical. Equal entries are not always repeated. Where two headings read alike, the source gives them in different places.",
  "data": [
    {"molecule": "CN1CCN(c2ccc3nc(-c4ccc5nc(-c6ccc(OCCCCNC(=O)c7ccc(C(=O)[O-])c(C8=C9C=CC(=[N+](C)C)C=C9[Si](C)(C)c9cc(N(C)C)ccc98)c7)cc6)[nH]c5c4)[nH]c3c2)CC1", "note": "[SiR-Hoechst]", "values": [
      {"measurement": "Kd", "setting": "DNA", "value": 8400, "unit": "nM"}
    ]},
    {"molecule": "Cc1cc(C=C2SC(=S)NC2=O)ccc1O", "note": "[HMBR, 4-hydroxy-3-methylbenzylidene rhodanine]", "values": [
      {"measurement": "residence time in the complex", "setting": "Y-FAST; 25 °C, HMBR–Y-FAST", "value": 160, "unit": "ms"},
      {"measurement": "Kd", "setting": "Y-FAST; HMBR in complex with Y-FAST", "value": "~130", "unit": "nM"}
    ]},
    {"molecule": "F-tractin: residues 10–52 of rat inositol 1,4,5-triphosphate-3-kinase A (MARPRGAGPCSPGLERAPRRSVGELRLLFEARCAAVAAAAAAG; UniProt P17105 10-52, looked up, fragment)", "values": [
      {"measurement": "exchange rate", "setting": "actin structures", "value": "highest exchange rate among all actin tags"}
    ]},
    {"molecule": "C=CC1=C(C)/C(=C/c2[nH]c(Cc3[nH]c(/C=C4\\NC(=O)C(C)=C4C=C)c(C)c3CCC(=O)O)c(CCC(=O)O)c2C)NC1=O", "note": "[bilirubin]", "values": [
      {"measurement": "Kd", "setting": "UnaG", "value": 0.098, "unit": "nM"}
    ]},
    {"molecule": "CC1=N/C(=C\\c2cc(F)c(O)c(F)c2)C(=O)N1C", "note": "[DFHBI, 3,5-difluoro-4-hydroxybenzylidene imidazolinone]", "values": [
      {"measurement": "Kd", "setting": "mFAP1", "value": 180, "unit": "nM"},
      {"measurement": "Kd", "setting": "mFAP2", "value": 560, "unit": "nM"},
      {"measurement": "Dissociation constants", "setting": "[1]", "value": "submicromoles to several micromoles"}
    ]},
    {"molecule": "Lifeact: short (17 amino acids) fragment of actin filament-binding protein Abp140 from Saccharomyces cerevisiae", "values": [
      {"measurement": "higher affinity to G-actin", "setting": "G-actin", "value": 10, "unit": "fold"},
      {"measurement": "Kd", "setting": "F-actin [2]; affinity to F-actin", "value": "~2200 nM and 2200 nM"},
      {"measurement": "exchange of probes", "setting": "F-actin [2]; on F-actin", "value": "≤ 0.4", "unit": "s"}
    ]},
    {"molecule": "MAP7: microtubule-associated protein (protein, UniProt Q14244 2-749, looked up) Ensconsin: AELGAGGDGHRGGDGAVRSETAPDSYKVQDKKNASSRPASAISGQNNNHSGNKPDPPPVLRVDDRQRLARERREEREKQLAAREIVWLEREERARQHYEKHLEERKKRLEEQRQKEERRRAAVEEKRRQRLEEDKERHEAVVRRTMERSQKPKQKHNRWSWGGSLHGSPSIHSADPDRRSVSTMNLSKYVDPVISKRLSSSSATLLNSPDRARRLQLSPWESSVVNRLLTPTHSFLARSKSTAALSGEAASCSPIIMPYKAAHSRNSMDRPKLFVTPPEGSSRRRIIHGTASYKKERERENVLFLTSGTRRAVSPSNPKARQPARSRLWLPSKSLPHLPGTPRPTSSLPPGSVKAAPAQVRPPSPGNIRPVKREVKVEPEKKDPEKEPQKVANEPSLKGRAPLVKVEEATVEERTPAEPEVGPAAPAMAPAPASAPAPASAPAPAPVPTPAMVSAPSSTVNASASVKTSAGTTDPEEATRLLAEKRRLAREQREKEERERREQEELERQKREELAQRVAEERTTRREEESRRLEAEQAREKEEQLQRQAEERALREREEAERAQRQKEEEARVREEAERVRQEREKHFQREEQERLERKKRLEEIMKRTRRTEATDKKTSDQRNGDIAKGALTGGTEVSALPCTTNAPGNGKPVGSPHVVTSHQSKVTVESTPDLEKQPNENGVSVQNENFEEIINLPIGSKPSRLDVTNSESPEIPLNPILAFDDEGTLGPLPQVDGVQTQQTAEVI", "values": [
      {"measurement": "Kd", "setting": "microtubules [3]", "value": "~470", "unit": "nM"}
    ]},
    {"molecule": "MAP4: microtubule-associated protein (protein, UniProt P27816 2-1152, looked up) Microtubule-associated …: ADLSLADALTEPSPDIEGEIKRDFIATLEAEAFDDVVGETVGKTDYIPLLDVDEKTGNSESKKKPCSETSQIEDTPSSKPTLLANGGHGVEGSDTTGSPTEFLEEKMAYQEYPNSQNWPEDTNFCFQPEQVVDPIQTDPFKMYHDDDLADLVFPSSATADTSIFAGQNDPLKDSYGMSPCNTAVVPQGWSVEALNSPHSESFVSPEAVAEPPQPTAVPLELAKEIEMASEERPPAQALEIMMGLKTTDMAPSKETEMALAKDMALATKTEVALAKDMESPTKLDVTLAKDMQPSMESDMALVKDMELPTEKEVALVKDVRWPTETDVSSAKNVVLPTETEVAPAKDVTLLKETERASPIKMDLAPSKDMGPPKENKKETERASPIKMDLAPSKDMGPPKENKIVPAKDLVLLSEIEVAQANDIISSTEISSAEKVALSSETEVALARDMTLPPETNVILTKDKALPLEAEVAPVKDMAQLPETEIAPAKDVAPSTVKEVGLLKDMSPLSETEMALGKDVTPPPETEVVLIKNVCLPPEMEVALTEDQVPALKTEAPLAKDGVLTLANNVTPAKDVPPLSETEATPVPIKDMEIAQTQKGISEDSHLESLQDVGQSAAPTFMISPETVTGTGKKCSLPAEEDSVLEKLGERKPCNSQPSELSSETSGIARPEEGRPVVSGTGNDITTPPNKELPPSPEKKTKPLATTQPAKTSTSKAKTQPTSLPKQPAPTTIGGLNKKPMSLASGLVPAAPPKRPAVASARPSILPSKDVKPKPIADAKAPEKRASPSKPASAPASRSGSKSTQTVAKTTTAAAVASTGPSSRSPSTLLPKKPTAIKTEGKPAEVKKMTAKSVPADLSRPKSTSTSSMKKTTTLSGTAPAAGVVPSRVKATPMPSRPSTTPFIDKKPTSAKPSSTTPRLSRLATNTSAPDLKNVRSKVGSTENIKHQPGGGRAKVEKKTEAAATTRKPESNAVTKTAGPIASAQKQPAGKVQIVSKKVSYSHIQSKCGSKDNIKHVPGGGNVQIQNKKVDISKVSSKCGSKANIKHKPGGGDVKIESQKLNFKEKAQAKVGSLDNVGHLPAGGAVKTEGGGSEAPLCPGPPAGEEPAISEAAPEAGAPTSASGLNGHPTLSGGGDQREAQTLDSQIQETSI", "values": [
      {"measurement": "Kd", "setting": "microtubules [4]", "value": "~300", "unit": "nM"}
    ]},
    {"molecule": "Utr261: first 261 amino acid residues of utrophin, the filament-crosslinking protein (protein, UniProt P46939 1-261, looked up, fragment) MAKYGEHEASPDNGQNEFSDIIKSRSDEHNDVQKKTFTKWINARFSKSGKPPINDMFTDLKDGRKLLDLLEGLTGTSLPKERGSTRVHALNNVNRVLQVLHQNNVELVNIGGTDIVDGNHKLTLGLLWSIILHWQVKDVMKDVMSDLQQTNSEKILLSWVRQTTRPYSQVNVLNFTTSWTDGLAFNAVLHRHKPDLFSWDKVVKMSPIERLEHAFSKAQTYLGIEKLLDPEDVAVQLPDKKSIIMYLTSLFEVLPQQVTID", "values": [
      {"measurement": "Kd", "setting": "F-actin [5]", "value": 18600, "unit": "nM"}
    ]},
    {"molecule": "UnaG: fluorogen-activating protein from Japanese eel muscle that reversibly binds bilirubin (protein, UniProt P0DM59 1-139, looked up) Bilirubin-inducible …: MVEKFVGTWKIADSHNFGEYLKAIGAPKELSDGGDATTPTLYISQKDGDKMTVKIENGPPTFLDTQVKFKLGEEFDEFPSDRRKGVKSVVNLVGEKLVYVQKWDGKETTYVREIKDGKLVVTLTMGDVVAVRSYRRATE", "values": [
      {"measurement": "Kd", "setting": "[6]", "value": 0.098, "unit": "nM"}
    ]}
  ]
}
